From patent publication US20120094998A1, “Oligomer-Protein Tyrosine Kinase Inhibitor Conjugates” (Nektar Therapeutics, priority 2009, published 2012)
Like-named read-outs stand apart in the source and are kept apart here.

How the values were obtained:
Type in all cases: biochemical
cKIT = cKIT (Homo sapiens, UniProt P10721); experiment: Activity against various protein tyrosine kinases: CKIT; design: purchased MILLIPORE 14-559; conditions: for inhibition at 0.01 µM: 10 nM
Experimental: (§1) Using techniques know those of ordinary skill in the art, compounds were tested for activity against various protein tyrosine kinases.

AKT1 = AKT1 (Homo sapiens, UniProt P31749); experiment: Activity against various protein tyrosine kinases: AKT1; conditions: for inhibition at 0.01 µM: 10 nM
Experimental: as §1

PRAK = target: T1, PRAK (Homo sapiens, UniProt Q8IW41); experiment: Activity against various protein tyrosine kinases: PRAK; conditions: for inhibition at 0.01 µM: 10 nM
T1 sequence (Q8IW41 1-473): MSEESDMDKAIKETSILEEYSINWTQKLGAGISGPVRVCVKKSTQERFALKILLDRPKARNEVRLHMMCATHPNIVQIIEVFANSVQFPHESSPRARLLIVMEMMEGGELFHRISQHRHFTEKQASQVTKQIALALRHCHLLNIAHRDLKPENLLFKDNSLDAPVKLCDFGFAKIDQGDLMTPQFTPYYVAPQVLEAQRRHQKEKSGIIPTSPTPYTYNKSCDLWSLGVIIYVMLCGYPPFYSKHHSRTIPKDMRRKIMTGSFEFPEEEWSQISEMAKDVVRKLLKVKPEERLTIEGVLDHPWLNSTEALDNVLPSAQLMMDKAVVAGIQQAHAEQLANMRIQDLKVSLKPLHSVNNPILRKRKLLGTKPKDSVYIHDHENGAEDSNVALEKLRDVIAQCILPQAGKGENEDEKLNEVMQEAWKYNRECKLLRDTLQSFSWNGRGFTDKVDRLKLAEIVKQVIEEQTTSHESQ
Experimental: as §1

AKT2 = AKT2 (Homo sapiens, UniProt P31751); experiment: Activity against various protein tyrosine kinases: AKT2; conditions: for inhibition at 0.01 µM: 10 nM
Experimental: as §1

CHK1 = target: T2, CHK1 (Homo sapiens, UniProt O14757); experiment: Activity against various protein tyrosine kinases: CHK1; conditions: for inhibition at 0.01 µM: 10 nM
T2 sequence (O14757 1-476): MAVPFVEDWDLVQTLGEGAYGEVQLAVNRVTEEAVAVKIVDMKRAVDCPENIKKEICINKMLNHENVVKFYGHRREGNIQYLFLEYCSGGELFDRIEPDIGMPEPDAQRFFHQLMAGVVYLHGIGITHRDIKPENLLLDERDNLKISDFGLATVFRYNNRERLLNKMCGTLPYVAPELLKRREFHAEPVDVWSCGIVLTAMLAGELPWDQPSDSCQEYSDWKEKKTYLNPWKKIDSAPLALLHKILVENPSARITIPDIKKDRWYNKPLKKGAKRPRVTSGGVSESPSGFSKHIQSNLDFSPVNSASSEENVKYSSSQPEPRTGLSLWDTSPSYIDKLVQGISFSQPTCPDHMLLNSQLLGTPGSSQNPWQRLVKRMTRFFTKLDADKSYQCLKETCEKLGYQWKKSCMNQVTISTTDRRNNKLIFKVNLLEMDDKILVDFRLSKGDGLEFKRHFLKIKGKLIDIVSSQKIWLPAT
Experimental: as §1

CaMKII (gamma) = CaMKII (gamma) (Homo sapiens, UniProt Q13555); experiment: Activity against various protein tyrosine kinases: CaMKII (gamma); conditions: for inhibition at 0.01 µM: 10 nM
Experimental: as §1

FGFR4 = FGFR4 (Homo sapiens, UniProt P22455); experiment: Activity against various protein tyrosine kinases: FGFR4; conditions: for inhibition at 0.01 µM: 10 nM
Experimental: as §1

PDGFR_alpha = PDGFR_alpha (Homo sapiens, UniProt P16234); experiment: Activity against various protein tyrosine kinases: PDGFR_alpha; conditions: for inhibition at 0.01 µM: 10 nM
Experimental: as §1

p38a = p38a (Homo sapiens, UniProt Q16539); experiment: Activity against various protein tyrosine kinases: p38a; conditions: for inhibition at 0.01 µM: 10 nM; for inhibition at 1 µM: read-out: % Inhibition at 1 μM
Experimental: as §1

Fer = Fer (Homo sapiens, UniProt P16591); experiment: Activity against various protein tyrosine kinases: Fer; conditions: for inhibition at 0.01 µM: 10 nM
Experimental: as §1

p38-beta2 = p38-beta2 (Homo sapiens, UniProt Q15759); experiment: Activity against various protein tyrosine kinases: p38-beta2; conditions: for inhibition at 0.01 µM: 10 nM
Experimental: as §1

TSSK1 = target: T3, TSSK1 (Homo sapiens, UniProt Q9BXA7); experiment: Activity against various protein tyrosine kinases: TSSK1; conditions: for inhibition at 0.01 µM: 10 nM
T3 sequence (Q9BXA7 1-367): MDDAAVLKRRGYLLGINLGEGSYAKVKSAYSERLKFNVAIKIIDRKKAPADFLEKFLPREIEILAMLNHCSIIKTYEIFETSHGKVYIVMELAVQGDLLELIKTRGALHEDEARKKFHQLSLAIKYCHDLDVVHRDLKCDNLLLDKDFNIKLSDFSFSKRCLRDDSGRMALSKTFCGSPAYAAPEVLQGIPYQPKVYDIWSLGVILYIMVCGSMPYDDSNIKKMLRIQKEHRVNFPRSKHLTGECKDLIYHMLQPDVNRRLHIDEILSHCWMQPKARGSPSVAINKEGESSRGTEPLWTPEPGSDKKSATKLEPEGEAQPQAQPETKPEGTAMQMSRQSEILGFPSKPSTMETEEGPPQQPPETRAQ
Experimental: as §1

AurA = target: T4, AurA (Homo sapiens, UniProt O14965); experiment: Activity against various protein tyrosine kinases: AurA; conditions: for inhibition at 0.01 µM: 10 nM
T4 sequence (O14965 1-403): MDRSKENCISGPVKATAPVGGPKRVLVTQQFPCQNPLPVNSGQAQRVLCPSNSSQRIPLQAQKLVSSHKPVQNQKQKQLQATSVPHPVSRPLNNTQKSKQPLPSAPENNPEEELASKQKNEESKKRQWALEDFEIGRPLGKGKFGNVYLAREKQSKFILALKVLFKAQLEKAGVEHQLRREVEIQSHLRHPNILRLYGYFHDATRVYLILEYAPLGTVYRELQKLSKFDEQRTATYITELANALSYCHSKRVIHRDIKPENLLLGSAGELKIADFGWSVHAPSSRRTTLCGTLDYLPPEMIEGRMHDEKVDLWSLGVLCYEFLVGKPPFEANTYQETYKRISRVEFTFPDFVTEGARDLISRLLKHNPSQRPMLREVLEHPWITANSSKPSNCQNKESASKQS
Experimental: as §1

AKT3 = AKT3 (Homo sapiens, UniProt Q9Y243); experiment: Activity against various protein tyrosine kinases: AKT3; conditions: for inhibition at 0.01 µM: 10 nM
Experimental: as §1

CaMKII (beta) = CaMKII (beta) (Homo sapiens, UniProt Q13554); experiment: Activity against various protein tyrosine kinases: CaMKII (beta); conditions: for inhibition at 0.01 µM: 10 nM
Experimental: as §1

Chain of Fer (P16591 whole entry, species assumed): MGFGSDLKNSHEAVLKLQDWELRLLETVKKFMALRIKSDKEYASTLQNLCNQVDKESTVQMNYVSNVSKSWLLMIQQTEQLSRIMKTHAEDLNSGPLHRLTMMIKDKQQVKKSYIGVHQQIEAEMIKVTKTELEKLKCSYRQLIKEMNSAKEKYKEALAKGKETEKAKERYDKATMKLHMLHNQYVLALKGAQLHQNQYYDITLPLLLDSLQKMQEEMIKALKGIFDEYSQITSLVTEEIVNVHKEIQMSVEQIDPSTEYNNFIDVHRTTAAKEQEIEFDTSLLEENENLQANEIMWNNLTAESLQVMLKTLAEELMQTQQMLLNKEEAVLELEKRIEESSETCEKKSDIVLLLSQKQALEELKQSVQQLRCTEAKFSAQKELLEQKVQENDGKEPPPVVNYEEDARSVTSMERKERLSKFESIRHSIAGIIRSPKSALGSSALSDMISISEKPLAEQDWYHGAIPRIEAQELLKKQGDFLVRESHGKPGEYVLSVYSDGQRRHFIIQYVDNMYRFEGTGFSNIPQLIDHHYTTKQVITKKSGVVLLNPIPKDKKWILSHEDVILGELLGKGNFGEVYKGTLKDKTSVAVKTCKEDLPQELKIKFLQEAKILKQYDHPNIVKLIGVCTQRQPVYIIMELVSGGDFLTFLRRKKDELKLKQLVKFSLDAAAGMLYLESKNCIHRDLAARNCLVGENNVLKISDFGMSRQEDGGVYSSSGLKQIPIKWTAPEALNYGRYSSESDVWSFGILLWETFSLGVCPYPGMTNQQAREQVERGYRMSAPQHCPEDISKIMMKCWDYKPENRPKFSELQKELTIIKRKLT
Chain of AKT3 (Q9Y243 whole entry, species assumed): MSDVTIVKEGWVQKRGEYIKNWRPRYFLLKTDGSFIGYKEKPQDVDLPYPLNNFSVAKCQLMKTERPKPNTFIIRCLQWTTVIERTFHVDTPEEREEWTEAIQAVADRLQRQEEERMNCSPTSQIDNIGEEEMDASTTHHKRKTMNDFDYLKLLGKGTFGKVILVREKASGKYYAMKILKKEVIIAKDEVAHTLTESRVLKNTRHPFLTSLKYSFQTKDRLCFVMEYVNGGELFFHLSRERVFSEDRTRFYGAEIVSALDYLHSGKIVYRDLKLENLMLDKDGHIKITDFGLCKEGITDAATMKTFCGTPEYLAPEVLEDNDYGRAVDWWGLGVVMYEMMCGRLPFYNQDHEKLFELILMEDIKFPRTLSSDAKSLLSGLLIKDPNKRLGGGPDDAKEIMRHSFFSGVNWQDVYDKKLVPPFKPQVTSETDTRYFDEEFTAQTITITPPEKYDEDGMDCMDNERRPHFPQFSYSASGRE
Chain of PDGFR_alpha (P16234 24-1089, species assumed): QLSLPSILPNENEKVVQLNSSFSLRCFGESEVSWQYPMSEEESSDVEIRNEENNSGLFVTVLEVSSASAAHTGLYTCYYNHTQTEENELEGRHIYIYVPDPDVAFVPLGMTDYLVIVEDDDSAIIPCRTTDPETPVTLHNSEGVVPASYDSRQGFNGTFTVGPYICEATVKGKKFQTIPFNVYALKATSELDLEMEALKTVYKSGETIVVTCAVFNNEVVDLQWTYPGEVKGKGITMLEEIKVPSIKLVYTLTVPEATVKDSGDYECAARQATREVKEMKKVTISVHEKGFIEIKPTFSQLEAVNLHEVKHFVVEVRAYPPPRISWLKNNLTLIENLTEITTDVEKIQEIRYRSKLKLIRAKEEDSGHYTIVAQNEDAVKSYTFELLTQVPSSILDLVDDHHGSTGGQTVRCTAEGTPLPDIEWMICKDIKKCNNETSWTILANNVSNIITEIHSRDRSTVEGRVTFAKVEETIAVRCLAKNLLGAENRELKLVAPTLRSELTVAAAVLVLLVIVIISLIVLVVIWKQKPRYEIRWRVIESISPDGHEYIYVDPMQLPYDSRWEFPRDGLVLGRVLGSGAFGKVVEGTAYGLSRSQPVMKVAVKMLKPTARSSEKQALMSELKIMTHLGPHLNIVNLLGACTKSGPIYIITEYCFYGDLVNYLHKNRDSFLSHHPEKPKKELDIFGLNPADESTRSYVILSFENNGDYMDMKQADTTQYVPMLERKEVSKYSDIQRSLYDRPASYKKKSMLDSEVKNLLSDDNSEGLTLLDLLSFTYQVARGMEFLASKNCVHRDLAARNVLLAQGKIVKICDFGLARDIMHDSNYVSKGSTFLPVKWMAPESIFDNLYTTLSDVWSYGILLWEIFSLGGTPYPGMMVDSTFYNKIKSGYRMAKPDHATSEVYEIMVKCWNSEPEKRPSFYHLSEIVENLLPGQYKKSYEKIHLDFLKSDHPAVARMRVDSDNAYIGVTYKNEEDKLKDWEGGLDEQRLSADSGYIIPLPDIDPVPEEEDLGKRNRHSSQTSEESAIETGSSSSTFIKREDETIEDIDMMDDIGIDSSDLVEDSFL
Chain of AKT2 (P31751 whole entry, species assumed): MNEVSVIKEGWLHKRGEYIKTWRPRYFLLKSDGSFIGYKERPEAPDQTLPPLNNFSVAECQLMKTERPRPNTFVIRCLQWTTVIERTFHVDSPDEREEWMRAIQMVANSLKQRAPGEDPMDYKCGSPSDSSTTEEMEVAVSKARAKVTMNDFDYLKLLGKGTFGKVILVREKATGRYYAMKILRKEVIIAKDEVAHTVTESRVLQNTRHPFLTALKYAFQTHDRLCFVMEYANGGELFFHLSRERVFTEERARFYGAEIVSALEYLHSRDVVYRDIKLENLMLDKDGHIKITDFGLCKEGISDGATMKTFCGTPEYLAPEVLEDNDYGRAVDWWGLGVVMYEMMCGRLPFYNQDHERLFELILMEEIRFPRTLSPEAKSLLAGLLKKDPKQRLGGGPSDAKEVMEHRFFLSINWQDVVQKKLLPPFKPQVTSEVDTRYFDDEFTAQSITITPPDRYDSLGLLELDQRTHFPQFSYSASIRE
Chain of CaMKII (beta) (Q13554 whole entry): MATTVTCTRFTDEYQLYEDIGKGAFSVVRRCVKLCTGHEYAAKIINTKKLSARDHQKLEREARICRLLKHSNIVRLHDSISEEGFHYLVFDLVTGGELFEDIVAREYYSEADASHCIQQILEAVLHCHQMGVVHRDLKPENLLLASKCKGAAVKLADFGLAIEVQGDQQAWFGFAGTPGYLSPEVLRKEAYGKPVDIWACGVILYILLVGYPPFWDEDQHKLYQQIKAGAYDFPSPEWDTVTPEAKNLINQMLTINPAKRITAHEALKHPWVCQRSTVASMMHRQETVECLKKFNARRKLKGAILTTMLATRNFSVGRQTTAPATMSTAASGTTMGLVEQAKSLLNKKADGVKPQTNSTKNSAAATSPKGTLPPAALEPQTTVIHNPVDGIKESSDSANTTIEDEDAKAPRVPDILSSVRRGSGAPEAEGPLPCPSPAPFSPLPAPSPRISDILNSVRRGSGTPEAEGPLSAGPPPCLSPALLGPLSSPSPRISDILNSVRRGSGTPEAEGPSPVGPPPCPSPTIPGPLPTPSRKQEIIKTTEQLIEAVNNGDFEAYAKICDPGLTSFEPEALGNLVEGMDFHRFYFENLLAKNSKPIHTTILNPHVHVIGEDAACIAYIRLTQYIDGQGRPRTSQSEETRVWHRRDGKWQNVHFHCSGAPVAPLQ
Chain of p38a (Q16539 whole entry): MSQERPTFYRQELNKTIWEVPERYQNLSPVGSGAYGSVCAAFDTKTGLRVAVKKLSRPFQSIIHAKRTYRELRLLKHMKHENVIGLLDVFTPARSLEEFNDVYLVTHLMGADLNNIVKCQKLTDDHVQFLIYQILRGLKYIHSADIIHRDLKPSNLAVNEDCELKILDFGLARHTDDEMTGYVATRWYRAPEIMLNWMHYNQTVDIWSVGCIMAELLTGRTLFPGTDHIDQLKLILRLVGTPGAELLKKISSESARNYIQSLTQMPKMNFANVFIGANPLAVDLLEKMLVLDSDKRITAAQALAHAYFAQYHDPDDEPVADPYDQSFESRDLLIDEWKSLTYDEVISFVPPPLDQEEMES
Chain of AKT1 (P31749 whole entry, species assumed): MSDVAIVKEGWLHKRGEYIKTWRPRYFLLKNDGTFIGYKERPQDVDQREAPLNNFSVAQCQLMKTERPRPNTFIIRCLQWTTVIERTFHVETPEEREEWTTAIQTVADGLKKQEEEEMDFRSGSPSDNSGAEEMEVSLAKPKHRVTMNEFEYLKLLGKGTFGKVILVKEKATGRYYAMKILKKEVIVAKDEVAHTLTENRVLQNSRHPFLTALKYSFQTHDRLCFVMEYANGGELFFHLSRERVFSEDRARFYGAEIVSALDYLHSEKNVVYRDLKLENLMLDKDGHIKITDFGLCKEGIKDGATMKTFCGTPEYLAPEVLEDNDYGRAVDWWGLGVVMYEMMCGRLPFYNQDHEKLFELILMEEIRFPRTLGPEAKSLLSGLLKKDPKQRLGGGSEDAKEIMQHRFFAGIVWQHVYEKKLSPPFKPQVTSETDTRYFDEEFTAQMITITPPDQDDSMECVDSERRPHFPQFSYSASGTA
Chain of CaMKII (gamma) (Q13555 whole entry, species assumed): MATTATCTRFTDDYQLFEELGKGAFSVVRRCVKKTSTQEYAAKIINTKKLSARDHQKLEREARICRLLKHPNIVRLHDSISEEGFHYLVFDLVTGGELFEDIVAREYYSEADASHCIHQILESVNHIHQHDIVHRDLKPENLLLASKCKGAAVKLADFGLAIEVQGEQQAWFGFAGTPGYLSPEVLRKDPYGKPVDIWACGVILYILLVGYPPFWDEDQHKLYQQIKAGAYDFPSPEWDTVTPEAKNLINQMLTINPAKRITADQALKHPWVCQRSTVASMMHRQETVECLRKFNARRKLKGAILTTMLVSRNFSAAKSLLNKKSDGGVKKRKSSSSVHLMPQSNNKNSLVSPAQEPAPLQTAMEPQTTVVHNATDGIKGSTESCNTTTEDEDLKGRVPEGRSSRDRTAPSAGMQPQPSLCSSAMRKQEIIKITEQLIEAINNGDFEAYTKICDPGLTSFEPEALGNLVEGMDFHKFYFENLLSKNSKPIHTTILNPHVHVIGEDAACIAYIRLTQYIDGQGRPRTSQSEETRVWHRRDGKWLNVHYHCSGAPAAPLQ

inhibition at 0.01 µM (cKIT) [%]	inhibition at 1 µM (cKIT) [%]	inhibition at 0.01 µM (AKT1) [%]	inhibition at 1 µM (AKT1) [%]	inhibition at 0.01 µM (PRAK) [%]	inhibition at 1 µM (PRAK) [%]	inhibition at 1 µM (AKT2) [%]	inhibition at 0.01 µM (CHK1) [%]	inhibition at 0.01 µM (CaMKII (gamma)) [%]	inhibition at 0.01 µM (FGFR4) [%]	inhibition at 0.01 µM (PDGFR_alpha) [%]	inhibition at 0.01 µM (Fer) [%]	inhibition at 0.01 µM (p38-beta2) [%]	inhibition at 1 µM (p38-beta2) [%]	inhibition at 0.01 µM (TSSK1) [%]	inhibition at 1 µM (TSSK1) [%]	inhibition at 0.01 µM (AurA) [%]	inhibition at 0.01 µM (AKT3) [%]	inhibition at 1 µM (AKT3) [%]	inhibition at 1 µM (CaMKII (beta)) [%]	SMILES	also measured
34	100	7	0	6	4	7	-2	2	3	58	-4	3	48	-1	0	-7	0	-1	2	COCCOCCOCCNC(=O)OCCN1CCN(c2cc(Nc3ncc(C(=O)Nc4c(C)cccc4Cl)s3)nc(C)n2)CC1 [mPEG3-NHCOO-Dasatinib]	inhibition at 0.01 µM (AKT2): 9%; inhibition at 1 µM (CHK1): 0%; inhibition at 1 µM (CaMKII (gamma)): 2%; inhibition at 1 µM (FGFR4): 6%; inhibition at 1 µM (PDGFR_alpha): 99%; inhibition at 0.01 µM (p38a; p38a): 6%; inhibition at 1 µM (p38a; p38a, 1 μM): 81%; inhibition at 1 µM (Fer): 5%; inhibition at 1 µM (AurA): 19%; inhibition at 0.01 µM (CaMKII (beta)): 1%
34	100	-1	0	8	0	3	10	6	0	46	-2	0	35	-3	-5	3	-3	-2	2	COCCOCCOCCOCCOCCOCCOCCNC(=O)OCCN1CCN(c2cc(Nc3ncc(C(=O)Nc4c(C)cccc4Cl)s3)nc(C)n2)CC1 [mPEG7-NHCOO-Dasatinib]	inhibition at 0.01 µM (AKT2): 3%; inhibition at 1 µM (CHK1): 8%; inhibition at 1 µM (CaMKII (gamma)): 3%; inhibition at 1 µM (FGFR4): 2%; inhibition at 1 µM (PDGFR_alpha): 98%; inhibition at 0.01 µM (p38a; p38a): 5%; inhibition at 1 µM (p38a; p38a, 1 μM): 74%; inhibition at 1 µM (Fer): 5%; inhibition at 1 µM (AurA): 28%; inhibition at 0.01 µM (CaMKII (beta)): 1%

SMILES	inhibition at 0.01 µM (cKIT) [%]	inhibition at 1 µM (cKIT) [%]	inhibition at 0.01 µM (AKT1) [%]	inhibition at 1 µM (AKT1) [%]	inhibition at 0.01 µM (PRAK) [%]	inhibition at 1 µM (PRAK) [%]	inhibition at 1 µM (AKT2) [%]	inhibition at 0.01 µM (CHK1) [%]	inhibition at 0.01 µM (CaMKII (gamma)) [%]	inhibition at 0.01 µM (FGFR4) [%]	inhibition at 0.01 µM (PDGFR_alpha) [%]	inhibition at 0.01 µM (Fer) [%]	inhibition at 0.01 µM (p38-beta2) [%]	inhibition at 1 µM (p38-beta2) [%]	inhibition at 0.01 µM (TSSK1) [%]	inhibition at 1 µM (TSSK1) [%]	inhibition at 0.01 µM (AurA) [%]	inhibition at 0.01 µM (AKT3) [%]	inhibition at 1 µM (AKT3) [%]	inhibition at 1 µM (CaMKII (beta)) [%]	also measured
Cc1nc(Nc2ncc(C(=O)Nc3c(C)cccc3Cl)s2)cc(N2CCN(CCO)CC2)n1 [Dasatinib, reference compound]	30	–	-6	-2	-2	–	-2	3	5	-2	10	-3	-2	34	-5	-6	-2	-3	-4	3	inhibition at 1 µM (p38a): 75%
